Test results as given in the supplement of paper PMC6045584.
± gives the standard deviation of the averaged measurements.

Assays:
[1] = compound: C=CC(=O)Nc1cc2c(Nc3ccc(F)c(Cl)c3)ncnc2cc1OCCCN1CCOCC1 [CANERTINIB]; experiment: surviving fraction relative to DMSO-only wells; higher = less growth inhibition; settings: exposure time: 5 days
Method in brief: (§1)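 Log-phase tumour cell lines, 250–500 cells per well in 384-well plates, received inhibitors at 0.5, 1, 5, 10, 50, 100, 500 and 1000 nM continuously for five days, starting 24 hours after seeding. Viability was quantified with CellTiter-Glo luminescence and normalised to the median of DMSO-only wells to give surviving fraction. Three screens were run per line, and a line stayed in only with replicate Pearson r >0.7 and median Z' >0.3.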

[2] = compound: Cn1cc(C2=Nc3cc(NC(=O)C(N)C4CCCCC4)cc4c3C2=CNNC4=O)cn1; experiment: as above; settings: exposure time: 5 days
Method in brief: as §1

Test System	surviving fraction ([1]; 0.5 nM)	surviving fraction ([1]; 1 nM)	surviving fraction ([1]; 5 nM)	surviving fraction ([1]; 10 nM)	surviving fraction ([1]; 50 nM)	surviving fraction ([1]; 100 nM)	surviving fraction ([1]; 500 nM)	surviving fraction ([1]; 1000 nM)	surviving fraction ([2]; 0.5 nM)	surviving fraction ([2]; 1 nM)	surviving fraction ([2]; 5 nM)	surviving fraction ([2]; 10 nM)	surviving fraction ([2]; 50 nM)	surviving fraction ([2]; 100 nM)	surviving fraction ([2]; 500 nM)	surviving fraction ([2]; 1000 nM)
PCI30 HEADNECK	0.962 ± 0.047	0.879 ± 0.058	0.866 ± 0.042	0.641 ± 0.032	0.485 ± 0.03	0.47 ± 0.017	0.323 ± 0.034	0.228 ± 0.028	0.977 ± 0.021	0.929 ± 0.027	0.994 ± 0.051	0.945 ± 0.014	0.913 ± 0.029	0.668 ± 0.039	0.365 ± 0.025	0.333 ± 0.012
SUM159 BREAST	0.973 ± 0.011	0.961 ± 0.028	0.948 ± 0.028	0.9347 ± 0.0076	0.9437 ± 0.0046	0.942 ± 0.022	0.916 ± 0.012	0.9197 ± 0.009	1.13 ± 0.14	1.16 ± 0.17	1.16 ± 0.19	1.12 ± 0.12	1.01 ± 0.066	1.1 ± 0.12	1.04 ± 0.012	0.862 ± 0.011
CAL72 BONE	0.982 ± 0.056	0.989 ± 0.067	0.979 ± 0.058	0.969 ± 0.052	1.02 ± 0.2	1.11 ± 0.037	1.03 ± 0.1	1.08 ± 0.053	1.04 ± 0.03	1.02 ± 0.038	1.02 ± 0.019	1.02 ± 0.04	0.937 ± 0.052	0.836 ± 0.043	0.111 ± 0.011	0.147 ± 0.01
SUM149 BREAST	0.898 ± 0.078	0.832 ± 0.052	0.627 ± 0.029	0.531 ± 0.04	0.451 ± 0.053	0.424 ± 0.072	0.324 ± 0.037	0.279 ± 0.037	0.875 ± 0.087	0.854 ± 0.13	0.874 ± 0.14	0.911 ± 0.1	0.481 ± 0.067	0.238 ± 0.047	0.0587 ± 0.0096	0.063 ± 0.0062
HS57T BREAST	0.946 ± 0.044	0.899 ± 0.047	0.893 ± 0.11	0.911 ± 0.02	0.919 ± 0.081	0.908 ± 0.012	0.843 ± 0.047	0.692 ± 0.02	1.04 ± 0.02	1.09 ± 0.027	1.11 ± 0.019	1.08 ± 0.047	0.967 ± 0.07	0.72 ± 0.027	0.097 ± 0.0087	0.0793 ± 0.0038
U2OS BONE	0.951 ± 0.022	0.95 ± 0.041	0.942 ± 0.025	0.962 ± 0.047	0.991 ± 0.0096	0.991 ± 0.029	0.877 ± 0.017	0.889 ± 0.059	1.06 ± 0.016	1.08 ± 0.029	1.1 ± 0.045	1.08 ± 0.04	1.04 ± 0.029	0.999 ± 0.029	0.201 ± 0.017	0.0873 ± 0.0068
CAL120 BREAST	0.903 ± 0.055	0.91 ± 0.063	0.91 ± 0.08	0.902 ± 0.036	0.921 ± 0.087	0.928 ± 0.046	0.795 ± 0.092	0.597 ± 0.021	0.966 ± 0.012	1.02 ± 0.019	1.01 ± 0.013	1.01 ± 0.038	0.966 ± 0.029	0.856 ± 0.044	0.375 ± 0.02	0.24 ± 0.023
C33A CERVIX	1.08 ± 0.039	1 ± 0.057	1.37 ± 0.12	1.04 ± 0.11	1.1 ± 0.015	0.84 ± 0.025	0.578 ± 0.044	0.349 ± 0.006	0.878 ± 0.066	0.99 ± 0.041	1.02 ± 0.094	1.03 ± 0.036	0.952 ± 0.046	0.833 ± 0.063	0.335 ± 0.011	0.0597 ± 0.025
CASKI CERVIX	0.83 ± 0.027	0.8 ± 0.042	0.644 ± 0.052	0.704 ± 0.042	0.555 ± 0.037	0.516 ± 0.054	0.157 ± 0.018	0.151 ± 0.022	0.918 ± 0.028	0.962 ± 0.082	0.92 ± 0.028	0.949 ± 0.038	0.511 ± 0.043	0.251 ± 0.071	0.057 ± 0.0095	0.0573 ± 0.0038
MCF7 BREAST	0.838 ± 0.027	0.831 ± 0.023	0.818 ± 0.02	0.79 ± 0.018	0.888 ± 0.02	0.859 ± 0.039	0.854 ± 0.082	0.808 ± 0.026	0.913 ± 0.043	0.918 ± 0.052	0.92 ± 0.023	0.865 ± 0.022	0.989 ± 0.022	0.885 ± 0.029	0.745 ± 0.02	0.575 ± 0.011
